According to patent US6133273A, “Pyrazolopyrimidine-2,4-dione sulfonamides” (American Home Products Corporation, priority 1999, dated 2000):
Read-outs that look alike come from different tables or passages of the source.

How the values were obtained:
[1] = tested on: C1-3 cell line (calcitonin secretion); experiment: Calcitonin Secretion/RIA Assay; format: cell-based, human; conditions: active if >2.5; for fold induction at 30 µM: Homo sapiens, C13, ratio of calcitonin secretion vs untreated control; for Secretion Ratio: 30 μM, ratio of calcitonin secretion vs untreated control
Method: Cell Line: C1-3 (Parent Cell Line: TT-medullary thyroid carcinoma),
Reagent A--(Anti-Calcitonin)
Regent C--(Anti-Goat Precipitant)
Regent D--(Zero Standard).
Reagents E-I--(Calcitonin Standards)
Reagents J-K (Calcitonin Controls: Level and Level 2)
1. Glass tubes were labeled to include Total Count (TC), Nonspecific Binding (NSB), Maximum Binding (Bo), Standards, Controls and Patient Sera in duplicate.
2. […] of Standard Zero (Reagent D) was added to tubes 3 through 6 (NSB and Bo).
3. […] of Standards* (Reagents E-1) was added to tubes 7-16 as follows:
4. […] of Patient Serum 1 was added to tubes 21 and 22, Patient Serum 2 was added to tubes 23 and 24, etc.
5. […] of Reagent L (NSB Buffer) was added to tubes 3 and 4.
6. […] of Reagent A (Anti-Calcitonin) was added to all tubes except tubes 1 & 2 (TC) and tube 3 & 4 (NSB). All tubes were vortexed, covered with parafilm or foil and incubated 44±6 hours at 2-8° C.
7. […] All tubes were vortexed, covered with parafilm or foil and incubated 22±3 hours at 2-8° C.
8. Reagent C (Anti-Goat Precipitant) was mixed gently but thoroughly by inverting the vial several times before use. 1 mL Reagent C was added to all tubes except 1 and 2 (TC). Tubes were vortexed and incubated 20 minutes at room temperature.
9. All tubes were centrifuged at 1300-1500×g for 15 minutes at 2-8° C.
10. Supernatant was decanted immediately after centrifugation taking care to leave the precipitate intact.
11. Tubes were counted 4 minutes or longer.
Secretion Ratio: Stimulation of calcitonin secretion is expressed as a ratio of secretion activity in the presence of test compound compared to the secretion activity in the untreated control: [formula]

[2] = Serum Calcium/Plasma Calcitonin Determination Assay (acute/subacute, rats); format: in vivo, Sprague Dawley rats; conditions: subacute, sc, n=8, 30 mg/kg/2x/day; for % Decrease Serum Calcium: Examples 4 and 7 marked * (p<0.05 vs. vehicle); for % Increase Plasma Calcitonin: Examples 5 and 7 marked * (p<0.05 vs. vehicle)
Method: This assay was used to evaluate the ability of a test compound to decrease serum calcium and increase plasma calcitonin in rats using either an acute or sub-acute protocol. […]
Subacute Administration Study: After 72 hours acclimatization, young male or female Sprague Dawley rats weighing 170-250 g were randomly divided in groups of 8. The rats were fasted and given deionized H2 O 18 hours prior to the start of the study. The purpose of the fasting is to reduce the variability in serum calcium and plasma calcitonin levels. Each rat was weighed.
C-G Test Compounds 30 mg/kg/2x/day ip or sc
^b In vehicle and test compound groups, the treatments that the
Measurements: Body weight, serum calcium levels and plasma calcitonin levels.
Data Evaluations: The difference in serum calcium and plasma calcitonin between a treatment group and the vehicle group was determined using a one-way analysis of variance with Dunnett's test, or other multiple comparison methods. Compounds were designated active if .rho.<0.05 vs. vehicle value.

[3] = tested on: PDE-IV; experiment: Inhibition of Phosphodiesterase IV (PDE-IV) isolated from human U937 cells; format: biochemical; conditions: U937 cell PDE-IV, 1 μM [3H]-cAMP, 37° C., test compound 0.001 μM to 10 μM
Method: This assay was used to biochemically assess the ability of a test compound to inhibit PDE-IV isolated from a U937 cell line, where PDE-IV refers to the cGMP-insensitive, cAMP-selective PDE.
Cell Culture: U937 cells were grown in RPMI 1640 medium supplemented with 10% heat-inactivated fetal calf serum and Penicillin/Streptomycin (100 units/100 μg per mL) in a humidified 5% CO2 atmosphere at 37° C. Starter cells were maintained in continuous logarithmic growth by seeding them in 75 cm^2 vented tissue culture flasks at a concentration of 3×10^4 cells/mL and passing them every 3-4 days when the cells reached approximately 8×10^5 cells/mL. For experiments, 3-4 day starter cells were seeded in 225 cm^2 flasks at 1×10^5 cells/mL and harvested 3-4 days later at approx. 6×10^5 cells/mL.
Isolation of PDE-IV: U937 cells were activated with 10 μM dibutyryl cAMP for a period of 4 hours (to up-regulate PDE-IV) and then harvested by centrifugation at 1200×g for 10 min in 250 mL conical centrifuge tubes. The pellet from each 200 mL flask was resuspended in 5 mL buffer A [10 mM Tris-HCl, 5 mM MgCl2, 4 mM EGTA, 5 mM 2-mercaptoethanol, 1 μM leupeptin, 1 μM pepstatin A, and 5 μM phenylmethyl sulfonyl fluoride (PMSF) (pH 7.8)], and the cells were lysed using 3 cycles of freezing (3 min in dry ice/acetone) followed by thawing (warm water). […] To determine which families of PDEs were present, fractions may be assayed for hydrolytic activity with 1 μM [^3 H]-cAMP or 1 μM [^3 H]-cGMP. Additionally, 1 μM [^3 H]-cAMP assays were conducted in the presence of 10 μM rolipram, 10 μM cGMP, or calmodulin (1 unit/0.4 mL plus 10 μM CaCl2).
When prepared in this manner, approximately 80% of total cAMP PDE activity is eluted by Buffer B containing 0.7 M sodium acetate. This PDE activity consists of>90% PDE-IV (as evidenced by its susceptibility to inhibition by rolipram.
PDE assay: PDE activity was measured using a modification of the radioisotope procedure previously described by Thompson et al. (Thompson, W. J., Terasaki, W. L., Epstein, P. M. and Strada, S. J. Adv, Cyclic Nucleotide Res. 1979, 10, 69). Reaction mixtures (0.4 mL) contain 40 mM Tris-HCl (pH 7.8), 4 mM 2-mercaptoethanol, 5 mM MgCl2, 0.1 μM leupeptin, 0.1 μM pepstatin A, 0.1 μM PMSF, 1 μM [3H]-cAMP or 1 μM [^3 H]-cGMP (~200,000 DPM), and enzyme to initiate the reaction. ^3 H-cAMP substrate was prepared as follows: A stock solution of ^3 H-cyclic nucleotide (1000 μCi/mL) was diluted 1:10 in 50% EtOH. 200 μl of this diluted stock solution was added to a cold (unlabeled) cyclic nucleotide solution, made at a concentration of 4 μM. 100 μl of this solution was used per assay tube to achieve a final concentration of 1 μM cyclic nucleotide per assay tube (200,000 DPM). Enzyme activity was determined at 37° C. Reactions were terminated by boiling, incubating with snake venom, and cooling as previously described (Thompson et al., 1979). The reaction mixture was applied to a (0.8×8.5 cm) column containing 0.4 g Dowex I-X8 affinity resin; reaction tubes were rinsed with 0.5 mL of methanol; and this, along with an extra 1 mL of methanol, was applied to the column to elute the ^3 H-reaction products. After all liquid has passed through the column, the column was plunged with a 12 cc syringe plunger. Each column's eluate was collected in a 20 mL scintillation vial containing 10 mL aquasol-2 and counted by scintillation spectrophotometry. [^3 H]-adenosine or [^3 H]-guanosine recovery was corrected for background DPM determined in the absence of enzyme. The amount of enzyme and duration of assay were adjusted to ensure that less than 25% of the substrate was consumed under these conditions.
Measurements: Inhibition by a test compound was measured as a percent reduction of total PDE activity, and calculated as follows: [formula] where A is the PDE activity (mean DPM-background DPM) in the presence of test compound, and B is the total PDE-IV activity (mean DPM-background DPM) in the absence of test compound. […]

[4] = tested on: promoter region of the human calcitonin gene (luciferase reporter, C1-3 cells); experiment: Calcitonin/Luciferase Reporter Gene Expression Assay; conditions: for fold induction at 30 µM: Homo sapiens, C13, 12 h, read-out: TAR (transcription activation ratio)
Method: (§1) This assay was used to determine the ability of a compound to stimulate transcription of a luciferase reporter gene regulated by 3 kb of the promoter region of the human calcitonin gene.
(§2) C1-3 cells were plated at a density of 6,500-7,500 cells per well in a 96-plate microtiter plate. Twenty-four to forty-eight hours later, compounds were added to the wells in triplicate. Compounds were tested at a concentration of 10 μg/mL in 0.5% DMSO.
(§3) The production of light is measured on a luminometer.
(§4) TAR Ratio: Stimulation of calcitonin promoter-dependent transcription is expressed as a ratio of luciferase activity (LUCI) in the presence of test compound compared to the LUCI activity in the untreated control: [formula]

[5] = tested on: promoter region of the human calcitonin gene (luciferase reporter, C1-3 cells); conditions: c1-3 tt cells, 12 h, 30 µM
Method: as §1, §2, §3, §4

Compound | fold induction at 30 µM [1] | % Decrease Serum Calcium [2] [%] | % Increase Plasma Calcitonin [2] [%] | % Inhibition of PDE IV (normalized to rolipram) [3] [%] | fold induction at 30 µM [4] | Secretion Ratio [1] | TAR (transcription activation ratio) [5] | TAR (transcription activation ratio) ([4]; 30 μM, ratio of luciferase activity vs untreated control, active if TAR>1.5)
CCCCn1c(=O)c2nn(S(=O)(=O)c3ccc4ccccc4c3)cc2n(CCCC)c1=O [Example 4, 4,6-Dibutyl-2-(2-naphthalenesulfonyl)-2,4-dihydro-pyrazolo[4,3-d]pyrimidine-5,7-dione] | 4.91 | 5 | 8 | 33 | 1.75 | – | – | –
CCCCn1c(=O)c2cn(S(=O)(=O)c3c(C)nn(C)c3Cl)nc2n(CCCC)c1=O [Example 7] | 2.92 | 4 | 80 | – | 2.13 | – | – | –
4,6-Dibutyl-1-(3,5-dimethyl-isoxazole-4-sulfonyl)-1,4-dihydro-pyrazolo[4,3- d]pyrimidine-5,7-dione [Example 8] | – | – | – | 26 | – | 3.23 | 2.14 | –
CCCCn1c(=O)c2nn(S(=O)(=O)c3ccc(C(C)(C)C)cc3)cc2n(CCCC)c1=O [Example 5, 4,6-Dibutyl-2-(4-tert-butyl-benzenesulfonyl)-2,4-dihydro-pyrazolo[4,3-d]pyrimidine-5,7-dione] | 4.5 | 1 | 101 | 63 | 2.27 | – | – | –
CCCCn1c(=O)c2nn(S(=O)(=O)c3cc(Cl)c(Cl)s3)cc2n(CCCC)c1=O [Example 6, 4,6-Dibutyl-2-(4,5-dichloro-thiophene-2-sulfonyl)-2,4-dihydro-pyrazolo[4,3-d]pyrimidine-5,7-dione] | 3.4 | 0 | 12 | 100 | 1.69 | – | – | –
4,6-Dibutyl-1-ethanesulfonyl-1,4-dihydro-pyrazolo[4,3-d]pyrimidine-5,7-dion [Example 10] | – | – | – | 45 | – | 2.90 | 1.43 | –
CCCCn1c(=O)c2cn(S(=O)(=O)c3cc(Cl)c(Cl)s3)nc2n(CCCC)c1=O [Example 15, 5,7-Dibutyl-2-(4,5-dichloro-thiophene-2-sulfonyl)-2,7-dihydro-pyrazolo[3,4-d]pyrimidine-4,6-dione] | 3.67 | – | – | 59 | 2.93 | – | – | –
4,6-Dibutyl-1-(propane-1-sulfonyl)-1,4-dihydro-pyrazolo[4,3-d]pyrimidine-5,7-dione [Example 9] | – | – | – | 27 | – | 2.71 | – | 1.47
CCCCn1c(=O)c2nn(S(=O)(=O)c3c(Cl)cc(Cl)cc3Cl)cc2n(CCCC)c1=O [Example 11, 4,6-Dibutyl-2-(2,4,6-trichloro-benzenesulfonyl)-2,4-dihydro-pyrazolo[4,3-d]pyrimidine-5,7-dione] | 4.31 | – | – | 26 | 1.76 | – | – | –
O=c1c2cn(S(=O)(=O)CCCCl)nc2n(CC2CC2)c(=O)n1CC1CC1 [Example 22, 2-(3-Chloro-propane-1-sulfonyl)-5,7-bis-cyclopropylmethyl-2,7-dihydro-pyrazolo[3,4-d]pyrimidine-4,6-dione] | 2.93 | – | – | 30 | 1.6 | – | – | –
CCCCn1c(=O)c2cn(S(=O)(=O)Cc3ccccc3)nc2n(CCCC)c1=O [Example 19, 5,7-Dibutyl-2-phenylmethanesulfonyl-1,7-dihydro-pyrazolo[3,4-d]pyrimidine-4,6-dione] | 3.43 | – | – | 48 | 1.97 | – | – | –
